pIC50: −log10 of the molar value. Where two headings read alike, the source gives them in different places.
Molecular target: T1, rat CB-1 receptor (Rattus norvegicus, UniProt P20272)
T1 construct: The tissue obtained from the brain of SD rats was homogenized; from tissue; host or cells: SD rat brain (membrane pellet of homogenate)
Experiment: rat CB-1 receptor binding protocol with [3H]CP-55940 on SD rat brain tissue
Conditions: [3H]CP-55940 displacement, SD rat brain homogenate; for pIC50: read-out: IC50 (binding affinity for CB1 receptor)

T1 sequence (P20272 whole entry): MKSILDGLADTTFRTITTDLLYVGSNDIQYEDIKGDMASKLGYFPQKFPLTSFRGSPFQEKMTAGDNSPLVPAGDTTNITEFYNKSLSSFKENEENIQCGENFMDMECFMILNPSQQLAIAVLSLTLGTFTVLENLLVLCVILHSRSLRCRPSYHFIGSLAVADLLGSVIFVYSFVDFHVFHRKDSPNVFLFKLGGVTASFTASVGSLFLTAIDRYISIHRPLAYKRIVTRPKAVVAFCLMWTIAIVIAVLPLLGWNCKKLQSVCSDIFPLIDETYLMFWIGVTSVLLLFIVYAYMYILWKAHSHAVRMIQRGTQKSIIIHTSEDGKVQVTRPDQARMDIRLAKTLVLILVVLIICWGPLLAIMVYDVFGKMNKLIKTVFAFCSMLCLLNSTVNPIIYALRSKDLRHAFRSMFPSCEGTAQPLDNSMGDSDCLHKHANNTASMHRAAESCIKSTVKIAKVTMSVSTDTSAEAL

| pIC50 (30° C., 60 min) | Structure (SMILES) | further results |
| --- | --- | --- |
| 7.61 | CCC(CC)C(=O)NC(=O)c1nn(-c2ccc(Cl)cc2Cl)c(-c2ccc(Cl)cc2)c1C [Example 1, 5-(4-Chlorophenyl)-1-(2,4-dichlorophenyl)-N-(2-ethylbutanoyl)-4-methyl-1H-pyrazole-3-carboxamide] | – |
| 6.91 | Cc1c(C(=O)NC(=O)C2CC2)nn(-c2ccc(Cl)cc2Cl)c1-c1ccc(Cl)cc1 [Example 2, 5-(4-Chlorophenyl)-N-(cyclopropanecarbonyl)-1-(2,4-dichlorophenyl)-4-methyl-1H-pyrazole-3-carboxamide] | – |
| 6.90 | Cc1c(C(=O)NC(=O)C2CCC2)nn(-c2ccc(Cl)cc2Cl)c1-c1ccc(Cl)cc1 [Example 3, 5-(4-Chlorophenyl)-N-(cyclobutanecarbonyl)-1-(2,4-dichlorophenyl)-4-methyl-1H-pyrazole-3-carboxamide] | – |
| 7.17 | Cc1c(C(=O)NC(=O)C2CCCC2)nn(-c2ccc(Cl)cc2Cl)c1-c1ccc(Cl)cc1 [Example 4, 5-(4-Chlorophenyl)-N-(cyclopentanecarbonyl)-1-(2,4-dichlorophenyl)-4-methyl-1H-pyrazole-3-carboxamide] | – |
| 7.52 | Cc1c(C(=O)NC(=O)C2CCCCC2)nn(-c2ccc(Cl)cc2Cl)c1-c1ccc(Cl)cc1 [Example 5, 5-(4-Chlorophenyl)-N-(cyclohexanecarbonyl)-1-(2,4-dichlorophenyl)-4-methyl-1H-pyrazole-3-carboxamide] | – |
| 6.42 | CC(=O)NC(=O)c1nn(-c2ccc(Cl)cc2Cl)c(-c2ccc(Cl)cc2)c1C [Example 6, N-Acetyl-5-(4-chlorophenyl)-1-(2,4-dichlorophenyl)-4-methyl-1H-pyrazole-3-carboxamide] | – |
| 7.36 | CCCC(=O)NC(=O)c1nn(-c2ccc(Cl)cc2Cl)c(-c2ccc(Cl)cc2)c1C [Example 7, N-Butyryl-5-(4-chlorophenyl)-1-(2,4-dichlorophenyl)-4-methyl-1H-pyrazole-3-carboxamide] | – |
| 7.47 | CCCCCC(=O)NC(=O)c1nn(-c2ccc(Cl)cc2Cl)c(-c2ccc(Cl)cc2)c1C [Example 8, 5-(4-Chlorophenyl)-1-(2,4-dichlorophenyl)-N-hexanoyl-4-methyl-1H-pyrazole-3-carboxamide] | – |
| 6.79 | Cc1c(C(=O)NC(=O)C(C)C)nn(-c2ccc(Cl)cc2Cl)c1-c1ccc(Cl)cc1 [Example 9, 5-(4-Chlorophenyl)-1-(2,4-dichlorophenyl)-N-isobutyryl-4-methyl-1H-pyrazole-3-carboxamide] | – |
| 7.49 | Cc1c(C(=O)NC(=O)C(C)(C)C)nn(-c2ccc(Cl)cc2Cl)c1-c1ccc(Cl)cc1 [Example 10, 5-(4-Chlorophenyl)-1-(2,4-dichlorophenyl)-4-methyl-N-pivaloyl-1H-pyrazole-3-carboxamide] | – |
| 7.67 | CCC(C)(C)C(=O)NC(=O)c1nn(-c2ccc(Cl)cc2Cl)c(-c2ccc(Cl)cc2)c1C [Example 11, 5-(4-Chlorophenyl)-1-(2,4-dichlorophenyl)-N-(2,2-dimethylbutanoyl)-4-methyl-1H-pyrazole-3-carboxamide] | – |
| 7.27 | Cc1c(C(=O)NC(=O)CC(C)(C)C)nn(-c2ccc(Cl)cc2Cl)c1-c1ccc(Cl)cc1 [Example 12, 5-(4-Chlorophenyl)-1-(2,4-dichlorophenyl)-N-(3,3-dimethylbutanoyl)-4-methyl-1H-pyrazole-3-carboxamide] | – |
| 7.57 | CCCC(CCC)C(=O)NC(=O)c1nn(-c2ccc(Cl)cc2Cl)c(-c2ccc(Cl)cc2)c1C [Example 13, 5-(4-Chlorophenyl)-1-(2,4-dichlorophenyl)-4-methyl-N-(2-propylpentanoyl)-1H-pyrazole-3-carboxamide] | – |
| 7.37 | CCCCC(CC)C(=O)NC(=O)c1nn(-c2ccc(Cl)cc2Cl)c(-c2ccc(Cl)cc2)c1C (centres unmarked) [Example 14, 5-(4-Chlorophenyl)-1-(2,4-dichlorophenyl)-N-(2-ethylhexanoyl)-4-methyl-1H-pyrazole-3-carboxamide] | – |
| 6.86 | CCCCCCNC(=O)NC(=O)c1nn(-c2ccc(Cl)cc2Cl)c(-c2ccc(Cl)cc2)c1C [Example 15, 5-(4-Chlorophenyl)-1-(2,4-dichlorophenyl)-N-(hexylcarbamoyl)-4-methyl-1H-pyrazole-3-carboxamide] | – |
| 6.41 | Cc1c(C(=O)NC(=O)NC2CCCCC2)nn(-c2ccc(Cl)cc2Cl)c1-c1ccc(Cl)cc1 [Example 16, 5-(4-Chlorophenyl)-N-(cyclohexylcarbamoyl)-1-(2,4-dichlorophenyl)-4-methyl-1H-pyrazole-3-carboxamide] | – |
| 6.12 | Cc1c(C(=O)NC(=O)NC2CCCCCC2)nn(-c2ccc(Cl)cc2Cl)c1-c1ccc(Cl)cc1 [Example 17, 5-(4-Chlorophenyl)-N-(cycloheptylcarbamoyl)-1-(2,4-dichlorophenyl)-4-methyl-1H-pyrazole-3-carboxamide] | – |

| pIC50 (30° C., 60 min) | Structure (SMILES) | further results |
| --- | --- | --- |
| – | Cc1c(C(=O)NC(=O)NCC2CCCCC2)nn(-c2ccc(Cl)cc2Cl)c1-c1ccc(Cl)cc1 [Example 18, 5-(4-Chlorophenyl)-N-(cyclohexylmethylcarbamoyl)-1-(2,4-dichlorophenyl)-4-methyl-1H-pyrazole-3-carboxamide] | IC50 (binding affinity for CB1 receptor) (30° C., 60 min): insoluble |
| 6.60 | Cc1c(C(=O)NC(=O)NC(C)C)nn(-c2ccc(Cl)cc2Cl)c1-c1ccc(Cl)cc1 [Example 19, 5-(4-Chlorophenyl)-1-(2,4-dichlorophenyl)-N-(isopropylcarbamoyl)-4-methyl-1H-pyrazole-3-carboxamide] | – |
| – | Cc1c(C(=O)NC(=O)NC(C)(C)C)nn(-c2ccc(Cl)cc2Cl)c1-c1ccc(Cl)cc1 [Example 20, N-(tert-butylcarbamoyl)-5-(4-chlorophenyl)-1-(2,4-dichlorophenyl)-4-methyl-1H-pyrazole-3-carboxamide] | IC50 (binding affinity for CB1 receptor) (30° C., 60 min): insoluble |
| – | Cc1c(C(=O)NC(=O)Nc2ccccc2)nn(-c2ccc(Cl)cc2Cl)c1-c1ccc(Cl)cc1 [Example 21, 5-(4-Chlorophenyl)-1-(2,4-dichlorophenyl)-4-methyl-N-(phenylcarbamoyl)-1H-pyrazole-3-carboxamide] | pIC50: < 5.00 |
| 6.84 | Cc1c(C(=O)NC(=O)NCc2ccccc2)nn(-c2ccc(Cl)cc2Cl)c1-c1ccc(Cl)cc1 [Example 22, N-(Benzylcarbamoyl)-5-(4-chlorophenyl)-1-(2,4-dichlorophenyl)-4-methyl-1H-pyrazole-3-carboxamide] | – |
| 7.75 | Cc1c(C(=O)NC(=O)OCc2ccccc2)nn(-c2ccc(Cl)cc2Cl)c1-c1ccc(Cl)cc1 [Example 23, Benzyl 5-(4-chlorophenyl)-1-(2,4-dichlorophenyl)-4-methyl-1H-pyrazole-3-carbonylcarbamate] | – |
| 7.00 | CCCCOC(=O)NC(=O)c1nn(-c2ccc(Cl)cc2Cl)c(-c2ccc(Cl)cc2)c1C [Example 24, Butyl 5-(4-chlorophenyl)-1-(2,4-dichlorophenyl)-4-methyl-1H-pyrazole-3-carbonylcarbamate] | – |
| 7.08 | Cc1c(C(=O)NC(=O)OC(C)(C)C)nn(-c2ccc(Cl)cc2Cl)c1-c1ccc(Cl)cc1 [Example 25, tert-Butyl 5-(4-chlorophenyl)-1-(2,4-dichlorophenyl)-4-methyl-1H-pyrazole-3-carbonylcarbamate] | – |
| 7.70 | CCC(CC)C(=O)NC(=O)c1nc(-c2ccc(Cl)cc2Cl)n(-c2ccc(Cl)cc2)c1C [Example 27, 1-(4-Chlorophenyl)-2-(2,4-dichlorophenyl)-N-(2-ethylbutanoyl)-5-methyl-1H-imidazole-4-carboxamide] | – |
| 7.06 | Cc1c(C(=O)NC(=O)C2CCCCC2)nc(-c2ccc(Cl)cc2Cl)n1-c1ccc(Cl)cc1 [Example 28, 1-(4-Chlorophenyl)-N-(cyclohexanecarbonyl)-2-(2,4-dichlorophenyl)-5-methyl-1H-imidazole-4-carboxamide] | – |
| 7.40 | Cc1c(C(=O)NC(=O)C(C)(C)C)nc(-c2ccc(Cl)cc2Cl)n1-c1ccc(Cl)cc1 [Example 29, 1-(4-Chlorophenyl)-2-(2,4-dichlorophenyl)-5-methyl-N-pivaloyl-1H-imidazole-4-carboxamide] | – |
| 7.40 | CCC(C)(C)C(=O)NC(=O)c1nc(-c2ccc(Cl)cc2Cl)n(-c2ccc(Cl)cc2)c1C [Example 30, 1-(4-Chlorophenyl)-2-(2,4-dichlorophenyl)-N-(2,2-dimethylbutanoyl)-5-methyl-1H-imidazole-4-carboxamide] | – |
| 7.12 | CCCC(CCC)C(=O)NC(=O)c1nc(-c2ccc(Cl)cc2Cl)n(-c2ccc(Cl)cc2)c1C [Example 31, 1-(4-Chlorophenyl)-2-(2,4-dichlorophenyl)-5-methyl-N-(2-propylpentanoyl)-1H-imidazole-4-carboxamide] | – |
| 7.33 | CCCCC(CC)C(=O)NC(=O)c1nc(-c2ccc(Cl)cc2Cl)n(-c2ccc(Cl)cc2)c1C (centres unmarked) [Example 32, 1-(4-Chlorophenyl)-2-(2,4-dichlorophenyl)-N-(2-ethylhexanoyl)-5-methyl-1H-imidazole-4-carboxamide] | – |
| 5.93 | CCCCCCCC(=O)NCNC(=O)c1nn(-c2ccc(Cl)cc2Cl)c(-c2ccc(Cl)cc2)c1C [Example 33, 5-(4-Chlorophenyl)-1-(2,4-dichlorophenyl)-4-methyl-N-(octanamidomethyl)-1H-pyrazole-3-carboxamide] | – |
| 6.82 | Cc1c(C(=O)NCNC(=O)C2CCC2)nn(-c2ccc(Cl)cc2Cl)c1-c1ccc(Cl)cc1 [Example 34, 5-(4-Chlorophenyl)-N-(cyclobutanecarboxamidomethyl)-1-(2,4-dichlorophenyl)-4-methyl-1H-pyrazole-3-carboxamide] | – |
| 7.31 | Cc1c(C(=O)NCNC(=O)C2CCCCC2)nn(-c2ccc(Cl)cc2Cl)c1-c1ccc(Cl)cc1 [Example 35, 5-(4-Chlorophenyl)-N-(cyclohexanecarboxamidomethyl)-1-(2,4-dichlorophenyl)-4-methyl-1H-pyrazole-3-carboxamide] | – |

| Structure (SMILES) | pIC50 (30° C., 60 min) | further results |
| --- | --- | --- |
| Cc1c(C(=O)NC(=O)OCC(C)(C)C)nn(-c2ccc(Cl)cc2Cl)c1-c1ccc(Cl)cc1 [Example 26, Neopentyl 5-(4-chlorophenyl)-1-(2,4-dichlorophenyl)-4-methyl-1H-pyrazole-3-carbonylcarbamate] | 6.44 | – |
